# Results reported in patent US8609656B2, “Heteroarylphenylurea derivative” (Chugai Seiyaku Kabushiki Kaisha, priority 2004, dated 2013).
# Counter-ions that a name gives are not always drawn.
# System: not listed separately
# Assay: Solubility to fasted state simulated intestinal fluid
# Format: physicochemical
# Conditions: fassif, kinetic from dmso stock, fasted state simulated intestinal fluid (pH 6.5), 37° C.
# Protocol: Method of Measuring Solubility to Fasted State Simulated Intestinal Fluid
# To a 96-well plate, 2 μL of a dimethyl sulfoxide solution of the compound relating to the present invention or that of the compound BAY 43-9006 was poured at one time, respectively, and fasted state simulated intestinal fluid (pH 6.5) was added 200 μL by 200 μL, and the plate was shaken at 37° C. for 20 hours. The solution was filtered with a membrane filter and 101 μL of the filtrate was transferred to an UV plate, and 100 μL of a mixed solution of ethanol:water=2:1 was added thereto. On the other hand, as a standard solution, 2 μL of a dimethyl sulfoxide solution was added to a solution containing 4 μL of dimethyl sulfoxide, 400 μL of ethanol and 200 μL of water and the obtained solution was transferred 101 μL by 101 μL to the UV plate and to this UV plate, the simulated fasting bile-containing intestinal juice (pH 6.5) was added 100 μL by 100 μL. The solubility was calculated by the following equation. Solubility=(absorbance of sample solution-blank)/(absorbance of standard solution-blank)×[…]
# […] is a concentration of the standard solution.
# Composition of Fasted State Simulated Intestinal Fluid
# Fasted state simulated intestinal fluid was prepared in accordance with E. Galia et al., Pharm. Res., 698, 1998.
# To about 90 mL of water, 161 mg of taurocholic acid, 59 mg of L-α-phosphatidylcholine, 0.39 g of potassium dihydrogenphosphate and 0.77 g of potassium chloride were added and the pH of the mixture solution […] and the mixture solution was filtered with a membrane filter.
row,Compound,solubility at 20 h [µg/mL]
1,"CNCCOc1cccc2c1ccn2-c1ccc(NC(=O)Nc2ccc(Cl)c(C(F)(F)F)c2)cc1.Cl [Table 1, Compound 21, 1-(4-Chloro-3-(trifluoromethyl)phenyl)-3-{4-[4-(2-methylamino-ethoxy)-indol-1-yl]phenyl}urea hydrochloride]",24
2,"COCCOCCOCC(=O)Nc1ncnc2c1ncn2-c1ccc(NC(=O)Nc2ccc(Cl)c(C(F)(F)F)c2)cc1 [Table 1, Compound 109, N-(9-{4-[3-(4-Chloro-3-(tri-fluoromethyl)phenyl)ureido]-phenyl}-9H-purin-6-yl)-2-[2-(2-methoxyethoxy)ethoxy]acetamide]",39
3,"CNc1ncnc2c1nc(OC)n2-c1ccc(NC(=O)Nc2ccc(Cl)c(C(F)(F)F)c2)cc1 [Table 2, Compound 21, 1-(4-Chloro-3-(trifluoromethyl)-phenyl)-3-[4-(8-methoxy-6-(methylamino)purin-9-yl)phenyl]-urea]",120
4,"CCc1nc2c(N)ncnc2n1-c1ccc(NC(=O)Nc2cc(CN3CCN(C)CC3)cc(C(F)(F)F)c2)cc1 [Table 2, Compound 32]",175
5,"CN1CCN(Cc2cc(NC(=O)Nc3ccc(-n4cnc5c(C(N)=O)nccc54)cc3)cc(C(F)(F)F)c2)CC1 [Table 2, Compound 33, 1-(4-{3-[3-(4-Methylpiperazin-1-ylmethyl)-5-(trifluoromethyl)-phenyl]ureido}-phenyl)-1H-imidazo[4,5-c]pyridine-4-carboxamide]",193
6,"CNc1ncnc2c1ncn2-c1ccc(NC(=O)Nc2cc(C(=O)N3CCN(C)CC3)cc(C(F)(F)F)c2)cc1 [Table 2, Compound 39]",48
7,"CNc1ncnc2c1ncn2-c1ccc(NC(=O)Nc2ccc(CCN3CCN(C(C)C)CC3)c(C(F)(F)F)c2)cc1 [Table 3, Compound 37, 1-{4-[2-(4-Isopropyl-piperazin-1-yl)ethyl]-3-(trifluoromethyl)phenyl}-3-[4-(6-(methylamino)purin-9-yl)phenyl]urea]",193

# The remaining lines, values ahead:
row,solubility at 20 h [µg/mL],Compound
1,34,"Cl.Nc1ncc2ncn(-c3ccc(NC(=O)Nc4ccc(Cl)c(C(F)(F)F)c4)cc3)c2n1 [Table 1, Compound 34, 1-[4-(2-Aminopurin-9-yl)phenyl]-3-(4-chloro-3-(trifluoromethyl)phenyl)urea hydrochloride]"
2,76,"CN(C)CCNC(=O)c1nccc2c1ncn2-c1ccc(NC(=O)Nc2ccc(Cl)c(C(F)(F)F)c2)cc1 [Table 1, Compound 92, 1-(4-[3-(4-Chloro-3-(trifluoro-methyl)phenyl)ureido]phenyl}-1H-imidazo[4,5-c]pyridine-4-carboxylic acid (2-dimethyl-aminoethyl)amide]"
3,19,"COCCOC(=O)Nc1ncnc2c1ncn2-c1ccc(NC(=O)Nc2ccc(Cl)c(C(F)(F)F)c2)cc1 [Table 1, Compound 115, (9-{4-[3-(4-Chloro-3-(tri-fluoromethyl)phenyl)ureido]-phenyl}-9H-purin-6-yl)carbamic acid 2-methoxyethyl ester]"
4,38,"O=C(Nc1ccc(-n2cnc3c(NCCN4CCOCC4)ncnc32)cc1)Nc1ccc(Cl)c(C(F)(F)F)c1 [Table 2, Compound 11, 1-(4-Chloro-3-(trifluoromethyl)-phenyl)-3-{4-[6-(2-morpholin-4-yl-ethylamino)purin-9-yl]-phenyl}urea]"
5,265,"CN(C)Cc1nc2c(N)ncnc2n1-c1ccc(NC(=O)Nc2ccc(Cl)c(C(F)(F)F)c2)cc1 [Table 2, Compound 12, 1-[4-(6-Amino-8-dimethylamino-methyl-purin-9-yl)phenyl]-3-(4-chloro-3-(trifluoromethyl)-phenyl)urea]"
6,149,"CN(C)CCN(C)c1ccc(NC(=O)Nc2ccc(-n3cnc4c(N)ncnc43)cc2)cc1C(F)(F)F [Table 2, Compound 35, 1-[4-(6-Aminopurin-9-yl)phenyl]-3-{4-[(2-dimetylaminoethyl)-methylamino]-3-(trifluoro-methyl)phenyl]urea]"
7,34,"CNc1ncnc2c1ncn2-c1ccc(NC(=O)Nc2ccc(CCCN3CCCC3)c(C(F)(F)F)c2)cc1 [Table 2, Compound 77, 1-[4-(6-(Methylamino)purin-9-yl)phenyl]-3-[4-[3-pyrrolidin-1-yl-propyl]-3-(trifluoromethyl)phenyl]-urea]"
8,104,"CNc1ncnc2c1ncn2-c1ccc(NC(=O)Nc2ccc(CNCCN3CCCC3)c(C(F)(F)F)c2)cc1 [Table 3, Compound 15]"
9,107,"CNc1ncnc2c1ncn2-c1ccc(NC(=O)Nc2ccc(CCN(C)CCN(C)C)c(C(F)(F)F)c2)cc1 [Table 3, Compound 36, 1-(4-{2-[(2-(Dimethylamino)ethyl)-methylamino]-ethyl}-3-(trifluoromethyl)phenyl)-3-[4-(6-(methylamino)-purin-9-yl)phenyl]urea]"
10,147,"CNc1ncnc2c1ncn2-c1ccc(NC(=O)Nc2ccc(CCN(C)CCCN(C)C)c(C(F)(F)F)c2)cc1 [Table 3, Compound 38, 1-(4-{2-[(3-(Dimethylamino)propyl)methylamino]ethyl}-3-(trifluoromethyl)phenyl)-3-[4-(6-(methylamino)purin-9-yl)phenyl]urea]"

# Molecular target: T1, recombinant Raf-1 protein (activated type GST-Raf-1) (Homo sapiens, UniProt P04049)
# T1 construct: fused on or other part: GST tag fused to Raf-1
# Assay: RAF-1 enzyme inhibition test (33P incorporation into MEK 1 protein)
# Format: biochemical
# Conditions: 10 μM ATP, GST-MEK1 substrate, 30° C., 45 minutes; read-out: Raf-1 Enzyme Inhibition, 50% Enzyme Inhibition Concentration (IC50 value)
# Protocol: RAF-1 Enzyme Inhibition Test
# With respect to the compounds relating to the present invention and the known compound (BAY 43-9006):
# [drawing 660] the Raf-1 protein inhibition activity was measured. The enzymatic reaction was measured by incorporation of ^33P-phosphoric acid into MEK 1 protein by a recombinant Raf-1 protein. The activity was measured by preparing 50 μL of a reaction solution containing a dimethyl sulfoxide solution of the compound relating to the present invention or the compound BAY 43-9006 at a varied concentration [as the final concentration, the reaction solution containing […] of TRIS hydrochloric buffer (pH 7.5), 1 mM of dithiothreitol, 100 mM of sodium chloride, 10 mM of potassium fluoride, 1 mM of sodium vanadate, 10 mM of magnesium chloride, 10 μM of adenosine triphosphate (ATP, containing ^33P-ATP of 12580Bq), 2 μg of GST-MEK1 and 25 ng of an activated type GST-Raf-1]; keeping the reaction solution at 30° C. for 45 minutes; adding 100% trichloroacetic acid to the reaction solution in an amount twice the volume of the reaction solution to precipitate a proteinous component; recovering the precipitate on a glass filter; and measuring the radioactivity of the recovered product. The 50% inhibition concentration (IC50) was obtained from the inhibition ratio to a sample-free reference.
# The compound BAYT 43-9006 was prepared on the basis of the description (Example 41) of WO 00/42012.
# T1 sequence (P04049 349-648 limits assumed): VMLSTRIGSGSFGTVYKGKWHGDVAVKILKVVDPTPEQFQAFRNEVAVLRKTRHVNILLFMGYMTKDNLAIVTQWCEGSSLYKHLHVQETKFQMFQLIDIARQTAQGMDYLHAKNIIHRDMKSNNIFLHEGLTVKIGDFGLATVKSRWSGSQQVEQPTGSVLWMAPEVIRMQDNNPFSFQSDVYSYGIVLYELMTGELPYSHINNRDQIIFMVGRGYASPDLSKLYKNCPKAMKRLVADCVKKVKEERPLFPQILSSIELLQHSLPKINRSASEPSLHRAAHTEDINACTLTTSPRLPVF
row,Compound,IC50 [nM]
1,"CC(=O)Oc1cccc2c1ccn2-c1ccc(NC(=O)Nc2ccc(Cl)c(C(F)(F)F)c2)cc1 [Table 1, Compound 18, Acetic acid 1-{4-[3-(4-chloro-3-(trifluoromethyl)phenyl)ureido]phenyl}-1H-indol-4-yl ester]",47
2,"O=C(Nc1ccc(Cl)c(C(F)(F)F)c1)N(O)c1ccc(-n2cnc3ncncc32)cc1 [Table 1, Compound 46, 1-(4-Chloro-3-(trifluoromethyl)phenyl)-3-hydroxy-3-(4-purin-7-ylphenyl)urea]",67
3,"C=Cc1nc2c(NC(=O)NCCC)ncnc2n1-c1ccc(NC(=O)Nc2ccc(Cl)c(C(F)(F)F)c2)cc1 [Table 2, Compound 13, 1-(9-{4-[3-(4-Chloro-3-(tri-fluoromethyl)phenyl)ureido]-phenyl}-8-vinyl-9H-purin-6-yl)-3-propylurea]",15
4,"CN1CCN(Cc2cc(NC(=O)Nc3ccc(-n4c(I)nc5c(N)ncnc54)cc3)cc(C(F)(F)F)c2)CC1 [Table 2, Compound 27]",67
5,"CNc1ncnc2c1ncn2-c1ccc(NC(=O)Nc2cc(C(=O)NCC(O)CO)cc(C(F)(F)F)c2)cc1 (stereo not drawn) [Table 2, Compound 57]",130
6,"CNc1ncnc2c1ncn2-c1ccc(NC(=O)Nc2cc(CCN3CCOCC3)cc(C(F)(F)F)c2)cc1 [Table 2, Compound 73, 1-[4-(6-(Methylamino)purin-9-yl)phenyl]-3-[3-(2-morpholin-4-yl-ethyl)-5-(trifluoromethyl)phenyl]urea]",84

# Further lines, results first:
row,IC50 [nM],Compound
1,33,"Nc1ncnc2c1ncn2-c1ccc(NC(=O)Nc2ccc(Cl)c(C(F)(F)F)c2)cc1 [Table 1, Compound 30, 1-[4-(6-Aminopurin-9-yl)phenyl]-3-(4-chloro-3-(trifluoromethyl)phenyl)urea hydrochloride]"
2,29,"C=Cc1nc2c(N)ncnc2n1-c1ccc(NC(=O)Nc2ccc(Cl)c(C(F)(F)F)c2)cc1 [Table 2, Compound 8, 1-[4-(6-Amino-8-vinylpurin-9-yl)phenyl]-3-(4-chloro-3-(tri-fluoromethyl)phenyl)urea]"
3,75,"CNc1ncnc2c1ncn2-c1ccc(NC(=O)Nc2cc(C(=O)NCCN(C)C)cc(C(F)(F)F)c2)cc1 [Table 2, Compound 40, N-(2-Dimethylaminoethyl)-3-{3-[4-(6-(methylamino)purin-9-yl)phenyl]ureido}-5-(trifluoromethyl)benzamide]"
4,190,"CNc1ncnc2c1ncn2-c1ccc(NC(=O)Nc2cc(CCN(C)C)cc(C(F)(F)F)c2)cc1 [Table 2, Compound 71, 1-[3-(2-Dimethylamino-ethyl)-5-(trifluoromethyl)phenyl]-3-[4-(6-(methylamino)purin-9-yl)phenyl]urea]"
